According to PubChem BioAssay AID248 (DTP/NCI, 2004):
Values joined by “and” are separate entries in the source; they are usually repeats but may differ in a detail not shown here. Equal values may be shown once. Inconclusive results and toxic doses are left out. No stated cut-off is given here; in the data, active means T/C of 150% or more; inactive means T/C below 125%. Square brackets hold non-standard residues; d marks the D form. Peptide text beside a SMILES is read from it. * marks the point of attachment. ξ: configuration not given here. ξF = NC(Cc1ccccc1)C(=O)O; Cbz = O=C(OCc1ccccc1)*

Test system: L1210 leukemia ip in BDF1 mice, survival T/C
Test: NCI In Vivo Anticancer Drug Screen. Data for tumor model L1210 Leukemia (intraperitoneal) in B6D2F1 (BDF1) mice
Settings: endpoint: mean survival time, higher = longer survival
Outline: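 Transplantable tumor model; survival measured in treated vs vehicle control mice. Value = treated/control.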

[1] = dose: 100.0 mg/kg/injection, schedule: Q04DX002 (ip), vehicle: Klucel (hydroxypropylcellulose) (HPC)
[2] = dose: 200.0 mg/kg/injection, schedule: Q04DX002 (ip), vehicle: Klucel (hydroxypropylcellulose) (HPC)
[3] = dose: 400.0 mg/kg/injection, schedule: Q04DX002 (ip), vehicle: Klucel (hydroxypropylcellulose) (HPC)
[4] = dose: 100.0 mg/kg/injection, schedule: Q01DX001 (ip), vehicle: saline
[5] = dose: 200.0 mg/kg/injection, schedule: Q01DX001 (ip), vehicle: saline
[6] = dose: 400.0 mg/kg/injection, schedule: Q01DX001 (ip), vehicle: saline
[7] = dose: 100.0 mg/kg/injection, schedule: Q01DX009 (ip), vehicle: saline
[8] = dose: 100.0 mg/kg/injection, schedule: Q04DX003 (ip), vehicle: saline
[9] = dose: 200.0 mg/kg/injection, schedule: Q01DX009 (ip), vehicle: saline
[10] = dose: 200.0 mg/kg/injection, schedule: Q04DX003 (ip), vehicle: saline
[11] = dose: 400.0 mg/kg/injection, schedule: Q01DX009 (ip), vehicle: saline
[12] = dose: 400.0 mg/kg/injection, schedule: Q04DX003 (ip), vehicle: saline
[13] = dose: 50.0 mg/kg/injection, schedule: Q04DX003 (ip), vehicle: saline with Tween-80
[14] = dose: 100.0 mg/kg/injection, schedule: Q04DX003 (ip), vehicle: saline with Tween-80
[15] = dose: 200.0 mg/kg/injection, schedule: Q04DX003 (ip), vehicle: saline with Tween-80
[16] = dose: 400.0 mg/kg/injection, schedule: Q04DX003 (ip), vehicle: saline with Tween-80
[17] = dose: 100.0 mg/kg/injection, schedule: Q04DX003 (ip), vehicle: Klucel (hydroxypropylcellulose) (HPC)
[18] = dose: 200.0 mg/kg/injection, schedule: Q04DX003 (ip), vehicle: Klucel (hydroxypropylcellulose) (HPC)
[19] = dose: 400.0 mg/kg/injection, schedule: Q04DX003 (ip), vehicle: Klucel (hydroxypropylcellulose) (HPC)
[20] = dose: 100.0 mg/kg/injection, schedule: Q01DX001 (ip), vehicle: Klucel (hydroxypropylcellulose) (HPC)
[21] = dose: 200.0 mg/kg/injection, schedule: Q01DX001 (ip), vehicle: Klucel (hydroxypropylcellulose) (HPC)

Measured: T/C

OC1C/C=C/CCCCC1 (stereo not drawn)
inactive: [1] 106 % of control | [2] 100 % of control | [3] 103 % of control

BrP(Nc1cccc(NP(Br)(c2ccccc2)(c2ccccc2)c2ccccc2)c1)(c1ccccc1)(c1ccccc1)c1ccccc1
inactive: dose: 10.0 mg/kg/injection, schedule: Q01DX001 (ip), vehicle: saline 99 % of control | dose: 20.0 mg/kg/injection, schedule: Q01DX001 (ip), vehicle: saline 99 % of control

Oc1cccnc1I
inactive: dose: 50.0 mg/kg/injection, schedule: Q01DX001 (ip), vehicle: saline 102 % of control | [4] 98 % of control | [5] 98 % of control | [6] 102 % of control

CC1(C)c2ccccc2C(=O)C1Cc1ccccc1 (stereo not drawn)
inactive: [7] 102 % of control | [8] 107 % of control | [9] 101 % of control | [10] 104 % of control | [11] 98 % of control | [12] 96 % of control

O=C(NCCCBr)Nc1cccc2c1CCCC2
inactive: [13] 95 % of control | dose: 100.0 mg/kg/injection, schedule: Q01DX009 (ip), vehicle: saline with Tween-80 100 % of control | [14] 93 % of control | dose: 200.0 mg/kg/injection, schedule: Q01DX009 (ip), vehicle: saline with Tween-80 97 % of control | [15] 101 % of control | dose: 400.0 mg/kg/injection, schedule: Q01DX009 (ip), vehicle: saline with Tween-80 96 % of control | [16] 95 % of control

OCC(O)C(O)C(O)C1COC(CBr)O1 (stereo not drawn)
inactive: [1] 90 % of control | [2] 93 % of control | [3] 108 % of control

CCC[Si](C)(C)CCC
inactive: [4] 100 % of control | [5] 98 % of control | [6] 100 % of control

Nc1cc(=O)[nH]c(O)c1C(=O)O
inactive: [14] 98 % of control and 90 % of control | [15] 97 % of control | [16] 94 % of control

N=c1c(-c2ccccc2)cc2ccccc2n1O
inactive: dose: 75.0 mg/kg/injection, schedule: Q01DX001 (ip), vehicle: other 103 % of control | dose: 150.0 mg/kg/injection, schedule: Q01DX001 (ip), vehicle: other 101 % of control | dose: 300.0 mg/kg/injection, schedule: Q01DX001 (ip), vehicle: other 98 % of control

CN(C)CCC1CCCCN1 (stereo not drawn)
inactive: dose: 25.0 mg/kg/injection, schedule: Q01DX009 (ip), vehicle: saline 95 % of control | dose: 25.0 mg/kg/injection, schedule: Q04DX003 (ip), vehicle: saline 103 % of control | dose: 50.0 mg/kg/injection, schedule: Q01DX009 (ip), vehicle: saline 95 % of control | dose: 50.0 mg/kg/injection, schedule: Q04DX003 (ip), vehicle: saline 101 % of control | [7] 104 % of control | [8] 99 % of control and 100 % of control

COC(=O)C(Cc1ccccc1)NC(=O)CNC(=O)OCc1ccccc1 (stereo not drawn) (Cbz-Gly-[ξF]-OMe)
inactive: dose: 100.0 mg/kg/injection, schedule: Q04DX003 (ip), vehicle: other 106 % of control | dose: 200.0 mg/kg/injection, schedule: Q04DX003 (ip), vehicle: other 101 % of control | dose: 400.0 mg/kg/injection, schedule: Q04DX003 (ip), vehicle: other 106 % of control

Fc1cccc(CSC(=S)Nc2ccc(Cl)c(Cl)c2)c1
inactive: [13] 101 % of control | [14] 104 % of control

O/C(=C\C(=S)S)c1ccc(Cl)cc1
inactive: dose: 0.06 mg/kg/injection, schedule: Q01DX009 (ip), vehicle: saline with Tween-80 103 % of control | dose: 0.12 mg/kg/injection, schedule: Q01DX009 (ip), vehicle: saline with Tween-80 105 % of control | dose: 0.25 mg/kg/injection, schedule: Q01DX009 (ip), vehicle: saline with Tween-80 98 % of control | dose: 0.5 mg/kg/injection, schedule: Q01DX009 (ip), vehicle: saline with Tween-80 112 % of control and 120 % of control | dose: 1.0 mg/kg/injection, schedule: Q01DX009 (ip), vehicle: saline with Tween-80 102 % of control and 107 % of control | dose: 1.0 mg/kg/injection, schedule: Q04DX003 (ip), vehicle: saline with Tween-80 103 % of control | dose: 2.0 mg/kg/injection, schedule: Q01DX009 (ip), vehicle: saline with Tween-80 107 % of control | dose: 2.0 mg/kg/injection, schedule: Q04DX003 (ip), vehicle: saline with Tween-80 97 % of control | dose: 4.0 mg/kg/injection, schedule: Q04DX003 (ip), vehicle: saline with Tween-80 97 % of control | dose: 8.0 mg/kg/injection, schedule: Q04DX003 (ip), vehicle: saline with Tween-80 105 % of control

CCCCCCCCCCCCCCCCNC(=S)N/N=C(/C=C/c1ccccc1)C(=O)O
inactive: dose: 15.0 mg/kg/injection, schedule: Q01DX Z (ip), vehicle: carboxymethylcellulose (CMC) 101 % of control | dose: 30.0 mg/kg/injection, schedule: Q01DX Z (ip), vehicle: carboxymethylcellulose (CMC) 108 % of control | dose: 30.0 mg/kg/injection, schedule: Q01DX Z (oral), vehicle: carboxymethylcellulose (CMC) 112 % of control | dose: 60.0 mg/kg/injection, schedule: Q01DX Z (ip), vehicle: carboxymethylcellulose (CMC) 113 % of control | dose: 60.0 mg/kg/injection, schedule: Q01DX Z (oral), vehicle: carboxymethylcellulose (CMC) 111 % of control | dose: 120.0 mg/kg/injection, schedule: Q01DX Z (oral), vehicle: carboxymethylcellulose (CMC) 100 % of control and 101 % of control | dose: 240.0 mg/kg/injection, schedule: Q01DX Z (oral), vehicle: carboxymethylcellulose (CMC) 108 % of control and 109 % of control | dose: 480.0 mg/kg/injection, schedule: Q01DX Z (oral), vehicle: carboxymethylcellulose (CMC) 109 % of control | dose: 960.0 mg/kg/injection, schedule: Q01DX Z (oral), vehicle: carboxymethylcellulose (CMC) 113 % of control

N#CCCN(C(=O)Nc1ccccc1)C1CCCCC1
inactive: dose: 100.0 mg/kg/injection, schedule: Q01DX Z (ip), vehicle: methylcellulose (MC) 101 % of control | dose: 200.0 mg/kg/injection, schedule: Q01DX Z (ip), vehicle: methylcellulose (MC) 89 % of control

COC(=O)c1cc(Cl)cc(N)c1Cl
inactive: [1] 98 % of control | [2] 98 % of control | [3] 91 % of control

Cc1cc2c([N+](=O)[O-])c3ccc(Cl)nn3c2n[n+]1[O-]
inactive: dose: 62.5 mg/kg/injection, schedule: Q04DX002 (ip), vehicle: Klucel (hydroxypropylcellulose) (HPC) 106 % of control | dose: 125.0 mg/kg/injection, schedule: Q04DX002 (ip), vehicle: Klucel (hydroxypropylcellulose) (HPC) 114 % of control | dose: 250.0 mg/kg/injection, schedule: Q04DX002 (ip), vehicle: Klucel (hydroxypropylcellulose) (HPC) 95 % of control

Nc1nc(N)nc(CCP(CCc2nc(N)nc(N)n2)CCc2nc(N)nc(N)n2)n1
inactive: dose: 25.0 mg/kg/injection, schedule: Q01DX009 (ip), vehicle: Klucel (hydroxypropylcellulose) (HPC) 110 % of control | dose: 50.0 mg/kg/injection, schedule: Q01DX009 (ip), vehicle: Klucel (hydroxypropylcellulose) (HPC) 108 % of control | dose: 100.0 mg/kg/injection, schedule: Q01DX009 (ip), vehicle: Klucel (hydroxypropylcellulose) (HPC) 104 % of control | [17] 110 % of control and 113 % of control | [18] 98 % of control and 100 % of control | [19] 101 % of control

Nc1ccc(Cc2cc(=O)[nH]c(=O)[nH]2)cc1[N+](=O)[O-]
inactive: dose: 25.0 mg/kg/injection, schedule: Q01DX001 (ip), vehicle: Klucel (hydroxypropylcellulose) (HPC) 98 % of control | dose: 50.0 mg/kg/injection, schedule: Q01DX001 (ip), vehicle: Klucel (hydroxypropylcellulose) (HPC) 107 % of control | [20] 88 % of control | [21] 88 % of control

Cc1noc(/N=C(/C(=N/c2onc(C)c2C)c2ccccc2)c2ccccc2)c1C
inactive: [17] 97 % of control | [18] 103 % of control | [19] 97 % of control

CN1CCC2(CC1)C(=O)N(c1ccccc1)C(=O)C2c1ccccc1 (stereo not drawn)
inactive: [20] 102 % of control | [21] 98 % of control

O=c1[nH]cc(CCCO)c(=O)[nH]1
inactive: [7] 88 % of control | [8] 103 % of control | [9] 93 % of control | [10] 100 % of control | [11] 88 % of control | [12] 92 % of control
